Test results: patent US6767738B1, “Method of isolating adult mammalian CNS-derived progenitor stem cells using density gradient centrifugation” (The Salk Institute for Biological Studies, priority 1999, dated 2004)

Assays:
clonal stem cells (AP14) = test: Neuronal differentiation of clonal adult stem cell cultures (Map2ab immunofluorescence); assay type: cell-based, rat
Description: Cell Culture. For proliferating conditions, clonal stem cells (AP14) were cultured in Dulbecco's Modified Eagles Medium/Ham's F12 (DMEM/F12, 1:1) containing N2 supplement (Gibco BRL, Gaithersburg, Md.) and 20 ng/ml rhFGF-2 (provided by A. Baird, Prizm Pharmaceuticals Inc., La Jolla, Calif.). Culture dishes (Becton Dickinsin Labware, Lincoln Park, N.J.) were coated with polyomithine and mouse laminin as previously described by Ray, et al., Proliferation, differentiation and long-term culture of primary hippocampal neurons, Proc Natl Acad Sci USA 90:3602-3606 (1993). For differentiation experiments, cells were plated into polyornithine/laminin coated glass chamber slides (Nunc, Naperville, Ill.) at a density of 2.5—103 per cm2. […] Louis, Mo.). For further differentiation, the medium was replaced by N2 medium containing 0.5% FBS and one of the following: sterile water (control solvent), mouse 2.55 NGF (50 ng/ml, Boehringer Mannheim, Indianapolis, Ind.), rhBDNF (20 ng/ml, Alomone Labs, Jerusalem, Israel), rhNT-3 (40 ng/ml, Genentech, South San Francisco, Calif.). […]
Immunofluorescence. […] Both the average percentage and the absolute number +/− SEM of immunofluorescent cells were determined by counting 10 or 50 high power fields (20×) visualized under fluorescence. The total number of cells was counted using nuclear counterstaining with 4′,6diamidino-2-phenylindole (DAPI, Sigma). […]

[1] = system: low-buoyancy cortical cells; test: Acquisition of neuron competence by low-buoyancy cortical cells in culture; assay type: cell-based, rat
Description: Tissue dissection: Three areas were dissected from adult rat brains as follows. Rats (170-190 g Fisher 344 males or females, Harlan) were deeply anesthetized with a mixture of ketamine, xylazine, and acepromazine. Animals were decapitated and whole brains removed. First, ˜1.5 mm of each optic nerve were harvested rostral to, but not including, the optic chiasma. The brain was then bisected longitudinally and each hippocampal lobe separated from the overlaying cortical white matter using the natural separation line along the alveus hippocampus. The white matter of the fimbria and subiculum was removed as much as possible. Some white matter remained. Finally, a 1.5 mm wide cortical ribbon containing parietal and frontal segments was dissected longitudinally, proximal to the central fissure. The pial and callosal surfaces were trimmed from each cortical ribbon to remove a majority of the meninges and white matter.
Tissue dissociation and fractionation: Tissues were finely minced and digested in a solution of papain (2.5 U/ml, Worthington), DNAse (250 U/ml, Worthington), and neutral protease (1 U/ml Dispase, Boehringer) dissolved in Hanks balanced salt solution, as described in Palmer T D, Ray J, Gage F H (1995), FGF-2-Responsive Neuronal Progenitors Reside in Proliferative and Quiescent Regions of the Adult Rodent Brain. Mol Cell Neurosci 6:474-486; and Gage F H, Coates P W, Palmer T D, Kuhn H G, Fisher L J, Suhonen J O, Peterson D A, Suhr S T, Ray J (1995), Survival and differentiation of adult neuronal progenitor cells transplanted to the adult brain. Proc Natl Acad Sci USA 92:11879-11883. Cells and tissue fragments were washed 3 times with Dulbecco's Modified Eagles Medium (DMEM) containing 10% […] bovine serum (defined FBS, Hyclone). Whole digested tissue was then suspended in DMEM 10% FBS, filtered through a sterile 107 μm nylon mesh and thoroughly mixed with an equal volume of PERCOLL™ (polyvinylpyrrolidone-coated silica colloids) solution. The PERCOLL™ (polyvinylpyrrolidone-coated silica colloids) solution was made by mixing 9 parts of PERCOLL™ (polyvinylpyrrolidone-coated silica colloids) (Pharmacia) with 1 part 10X phosphate buffered saline (PBS, Irvine Scientific). The cell suspension was then fractionated by centrifugation for 30 minute, 18°C., at 20,000×g. […]
To determine how rapidly cortical cells acquired the competence to differentiate into neurons in culture, cells were isolated and cultured in growth medium for various times, allowed to differentiate in differentiation medium and then evaluated for the presence of neurons. […] Cultures were also treated with BrdU for the first 10 days and the newly generated neurons were evaluated for evidence of cell division. All neurons scored were labeled (>99%).

| Compound | number of Map2ab-immunoreactive (IR) neurons relative to growth factor withdrawal and 0.5% serum alone (clonal stem cells (AP14); FGF-2 withdrawal, 500 nM RA plus 0.5% FBS 6 days, then 6 days 0.5% serum alone) | increase in number of MAP2ab-positive cells (clonal stem cells (AP14); RA for 6 days, then RA withdrawn for additional 6 days) | newly generated neurons labeled with BrdU ([1]; BrdU for the first 10 days) | neurons observed in cortical cultures ([1]; after three days in FGF-2) | cells that formed neurons when induced to differentiate ([1]; by 4 weeks in FGF-2 growth medium, 3 passages) |
| --- | --- | --- | --- | --- | --- |
| CC1=C(/C=C/C(C)=C/C=C/C(C)=C/C(=O)O)C(C)(C)CCC1 [RA, all-trans retinoic acid] | more than tripled | 3 fold |  |  |  |
| FGF-2: basic fibroblast growth factor, human recombinant, prepared in E. coli |  |  | > 99% | the occasional neuron was observed | roughly 10% |
